{
  "source": "patent US20240207239A1",
  "about": "“COMPOSITION AND PREPARATION METHOD THEREFOR” (priority 2021, published 2024)",
  "origin": "cited, not measured here",
  "details": "range of pH 1-12",
  "data": [
    {"smiles": "CNC(=O)c1ccc(N2C(=S)N(c3cnc(C#N)c(C(F)(F)F)c3)C(=O)C23CCC3)cc1F", "note": "[Apalutamide, 4-[7-(6-cyano-5-trifluoromethylpyridine-3-yl)-8-oxo-6-thioxo-5,7-diazaspiro[3. 4]octan-5-yl]-2-fluoro-N-methylbenzamide]", "values": [
      {"measurement": "solubility in aqueous medium", "result": "almost insoluble"}
    ]}
  ]
}
